Where “and” joins values, the source holds several entries; their conditions need not be identical. Equal values may be shown once. Read-outs that look alike come from different tables or passages of the source.
Legend:
RD TE32 = test: MTT cell viability assay, RD TE32; assay type: cell-based, human; conditions: for IC50: Homo sapiens
From the text: (§1) Blokhin National Medical Research Center of Oncology (the Ministry of Health of the Russian Federation, Moscow).

MS = test: MTT cell viability assay, MS; assay type: cell-based, human; conditions: for IC50: Homo sapiens;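 on IC50 (mean ± SD): MS is a melanocyte cell line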
From the text: as §1

HCT116 = test: MTT cell viability assay, HCT116; assay type: cell-based, human; conditions: for IC50: Homo sapiens, HCT-116
From the text: as §1

A549 = test: MTT cell viability assay, A549; assay type: cell-based, human; conditions: for IC50: Homo sapiens
From the text: as §1

HBL-100 cells [1] = test: Western blotting of cytochrome c, cleaved caspase-9 and -8, HBL-100; assay type: cell-based, human; conditions: 16 h, IC50
Experimental: The supernatant (cytosol fraction) and mitochondrial pellets were then collected, and protein concentration was determined by UV […] using 1–100 μg/mL BSA as standard curve concentrations (UV-2600i spectrophotometer; Shimadzu, Tokyo, Japan).
Then, the same protein amounts (20.0 µg in each lane) were loaded and separated by 4–20% Mini-PROTEAN TGX Stain-Free Protein Gels (Bio-Rad Laboratories, Hercules, CA, USA), followed by transferring onto polyvinylidene difluoride (PVDF) membranes. The membranes were blocked with 1% (w/v) casein in Tris-buffered saline containing 0.1% Tween-20 (TBS-T), and were incubated overnight with primary antibodies (1:1000) of Cytochrome c (D18C7) Rabbit mAb, Cleaved Caspase-9 (Asp330) (E5Z7N) Rabbit mAb, Cleaved Caspase-8 (Asp374) (18C8) Rabbit mAb, and β-Actin (D6A8) Rabbit mAb (Cell Signaling Technology, Danvers, MA, USA) for cytosol and mitohondrial fractions at 4 °C. The next day, the PVDF membranes were washed thrice in TBS-T and incubated with HRP-conjugated secondary antibodies (1:1000) (Cell Signaling Technology, Danvers, MA, USA) for 1 h at RT. Immunoreactive proteins were detected by Clarity Western ECL Substrate (Bio-Rad Laboratories, Hercules, CA, USA) and then analyzed on the ChemiDoc MP Imaging system (Bio-Rad Laboratories, Hercules, CA, USA). The proteins were quantified by densitometry using Image Lab software (version 6.0; Bio-Rad Laboratories, Hercules, CA, USA). To normalize protein expression data, a blot with β-Actin was used.

HBL-100/Dox cells = test: Hoechst 33342 / TMRE fluorescent microscopy, HBL-100/Dox; assay type: cell-based, human
Experimental: (§2) The DNA marker, termed Hoechst 33342 Ready Flow Reagent, was used as a stock solution (Invitrogen, ThermoFisher Scientific, USA). The mitochondrial marker, LumiTracker Mito TMRE (tetramethylrhodamine, ethyl ester; Lumiprobe, Moscow, Russia), was dissolved in DMSO as 1.0 mM stock solution. The marker of reactive oxygen species, H2DCFDA (Lumiprobe, Moscow, Russia), was dissolved in DMSO as 100.0 μM stock solution. After incubation, the cells were incubated with FBS-free culture medium containing the dye mixture of Hoechst 33342 (final concentration 1.0 μM) and LumiTracker Mito TMRE (final concentration 1.0 μM), or H2DCFDA dye taken alone (final concentration 1.0 μM), for 30 min at 37 °C in darkness. Fluorescence, at 420 nm (Hoechst 33342), at 510 nm (TMRE), and at 575 nm (H2DCFDA), of the test cultures (including controls) was analyzed immediately using a fluorescence microscope CKX 53 (Olympus, Tokyo, Japan). The TMRE fluorescence intensity was quantified using Fiji (ImageJ).

PC-3 = test: MTT cell viability assay, PC-3; assay type: cell-based, human; conditions: for IC50: Homo sapiens
From the text: as §1

HEpG2 = test: MTT cell viability assay, HEpG2; assay type: cell-based, human; conditions: for IC50: Homo sapiens
From the text: as §1

MCF-7 = test: MTT cell viability assay, MCF-7; assay type: cell-based, human; conditions: for IC50: Homo sapiens, MCF7
From the text: as §1

HBL-100 cells [2] = test: Hoechst 33342 / TMRE fluorescent microscopy, HBL-100; assay type: cell-based, human
Experimental: as §2

human cancer cell lines = test: MTT assay, panel of cancer cell lines; conditions: for IC50: Homo sapiens
Experimental: In this study, the human embryonic kidney cell line HEK293 was used as the non-cancerous cell line.
To investigate the cytotoxic activity of the compounds under study, the MTT colorimetric assay [45] was performed. […] After 72 h, 20 μL of 5 mg/mL solution of MTT (PanEco, Moscow, Russia), in sterile phosphate-buffered saline (PBS; PanEco, Moscow, Russia), was added to each well and further incubated for 4 h. Then, the medium with the compounds was removed, and the formed formazan crystals were dissolved in 100 μL of DMSO. […] The IC50 values were determined from dose-dependent curves, using Prism 6.0 (GraphPad Software, Boston, MA, USA).

HBL-100 cells [3] = test: Annexin V-FITC/PI assay, HBL-100; assay type: cell-based, human; conditions: 16 h
Experimental: Briefly, after exposing the cells to the tested and control compounds for 16 h, the cells were detached with accutase (HiMedia Laboratories, Maharashtra, India) and washed with cold PBS. Then, the cells were re-suspended in 100 μL of 1 × Binding Buffer at concentration 1 × 10^6 cells/mL and incubated with 5 μL Annexin V-FITC and 5 μL propidium iodide (PI) for 15 min at room temperature in darkness. After incubation, 400 μL of 1 × Binding Buffer was added to each tube. The samples were analyzed by flow cytometry (CytoFlex S, Beckman Coulter, Brea, CA, USA) within 1 h of staining, and the findings were analyzed using a trial version of the Kaluza software (Beckman Coulter, Brea, CA, USA).

**Q.** Which IC50 (RD TE32; RD TE32, MTT, 72 h of treatment, read-out: IC50 Values (Mean ± SD)) does the source give for `COC(=O)[C@]12CC[C@@H](C(C)C)[C@@H]1[C@H]1CC[C@@H]3[C@@](C)(CCC#N)[C@H](C(=O)C(Br)Br)CC[C@@]3(C)[C@]1(C)CC2` [compound 31, 2-Cyano-24,24-dibromo-4-oxo-3,4-seco-3,23-dinorlupan-28-oic acid methyl ester] here?
**A.** The IC50 was 0.7 ± 0.1 µM.

**Q.** What about the IC50 (RD TE32; Table S1, RD TE32, read-out: IC50 (mean ± SD)) of the same compound?
**A.** The IC50 was 0.66 ± 0.04 µM.

**Q.** And the “Selectivity index (SI)” value (RD TE32; ratio of IC50 values healthy (HEK293) / RD TE32)?
**A.** The value was 16.43.

**Q.** And the IC50 (MS; MS, MTT, 72 h of treatment, read-out: IC50 Values (Mean ± SD))?
**A.** The IC50 was 16.5 ± 1.5 µM.

**Q.** And the IC50 (MS; Table S1, MS, read-out: IC50 (mean ± SD))?
**A.** The IC50 was 16.5 ± 1.53 µM.

**Q.** And the “Selectivity index (SI)” value (MS; ratio of IC50 values healthy (HEK293) / MS)?
**A.** Its value is 0.70.

**Q.** And the IC50 (HCT116; HCT116, MTT, 72 h of treatment, read-out: IC50 Values (Mean ± SD))?
**A.** The IC50 was 3.9 ± 0.1 µM.

**Q.** What about the IC50 (HCT116; Table S1, HCT116, read-out: IC50 (mean ± SD)) of the same compound?
**A.** Its IC50 is 3.86 ± 0.08 µM.

**Q.** And the “Selectivity index (SI)” value (HCT116; ratio of IC50 values healthy (HEK293) / HCT116)?
**A.** The value was 2.95.

**Q.** What about the IC50 (A549; A549, MTT, 72 h of treatment, read-out: IC50 Values (Mean ± SD)) of the same compound?
**A.** The IC50 was 7 ± 0.2 µM.

**Q.** What about the IC50 (A549; Table S1, A549, read-out: IC50 (mean ± SD)) of the same compound?
**A.** Its IC50 is 7.01 ± 0.21 µM.

**Q.** What about the “Selectivity index (SI)” value (A549; ratio of IC50 values healthy (HEK293) / A549) of the same compound?
**A.** Its value is 1.64.

**Q.** And the “activation of caspase-8” value (HBL-100 cells [1])?
**A.** The value was “not observed”.

**Q.** And the “activation of caspase-9” value (HBL-100 cells [1])?
**A.** Its value is “sequential activation of initiator caspase-9”.

**Q.** What about the “cytochrome c release” value (HBL-100 cells [1]) of the same compound?
**A.** The value was “provoked the release of cytochrome c from mitochondria to cytosol”.

**Q.** What about the “mitochondrial membrane potential (MMP), TMRE fluorescence intensity” value (HBL-100/Dox cells; 16 h, vs untreated control) of the same compound?
**A.** Its value is “significant (p < 0.05) reduction in MMP”.

**Q.** And the “number of cells with nuclear morphology changes” value (HBL-100/Dox cells; Hoechst 33342, 16 h, IC50 values (MK 1.8 µM))?
**A.** Its value is 33.1%.

**Q.** And the IC50 (PC-3; PC-3, MTT, 72 h of treatment, read-out: IC50 Values (Mean ± SD))?
**A.** The IC50 was 10.4 ± 1.3 µM.

**Q.** What about the IC50 (PC-3; Table S1, PC-3, read-out: IC50 (mean ± SD)) of the same compound?
**A.** Its IC50 is 10.3 ± 1.27 µM.

**Q.** And the “Selectivity index (SI)” value (PC-3; ratio of IC50 values healthy (HEK293) / PC-3)?
**A.** The value was 1.11.

**Q.** What about the IC50 (HEpG2; HEpG2, MTT, 72 h of treatment, read-out: IC50 Values (Mean ± SD)) of the same compound?
**A.** The IC50 was 16.6 ± 0.4 µM.

**Q.** And the IC50 (HEpG2; Table S1, HEpG2, read-out: IC50 (mean ± SD))?
**A.** The IC50 was 16.6 ± 0.41 µM.

**Q.** What about the “Selectivity index (SI)” value (HEpG2; ratio of IC50 values healthy (HEK293) / HEpG2) of the same compound?
**A.** Its value is 0.69.

**Q.** And the IC50 (MCF-7; MCF-7, MTT, 72 h of treatment, read-out: IC50 Values (Mean ± SD))?
**A.** The IC50 was 7.1 ± 0.7 µM.

**Q.** What about the IC50 (MCF-7; Table S1, MCF-7, read-out: IC50 (mean ± SD)) of the same compound?
**A.** Its IC50 is 7.06 ± 0.72 µM.

**Q.** And the “Selectivity index (SI)” value (MCF-7; ratio of IC50 values healthy (HEK293) / MCF-7)?
**A.** The value was 1.62.

**Q.** What about the “mitochondrial membrane potential (MMP), TMRE fluorescence intensity” value (HBL-100 cells [2]; 16 h, vs untreated control) of the same compound?
**A.** The value was “significant (p < 0.05) reduction in MMP”.

**Q.** And the “number of cells with nuclear morphology changes” value (HBL-100 cells [2]; Hoechst 33342, 16 h, IC50 values (MK 1.0 µM))?
**A.** Its value is 21.2%.

**Q.** What about the IC50 (human cancer cell lines; read-out: IC50 values (range)) of the same compound?
**A.** The IC50 was 0.7 to 7.1 µM.

**Q.** And the IC50 (human cancer cell lines; read-out: cytotoxicity (IC50 range))?
**A.** The IC50 was 0.7 to 16.6 µM.

**Q.** And the “cytotoxicity in the screening studies” value (human cancer cell lines; MTT screening, Table S1)?
**A.** The value was “pronounced cytotoxic effect”.

**Q.** And the “SI (range)” value (human cancer cell lines; against HBL-100/Dox, HBL-100, and RD TE32 cells)?
**A.** The value was 6.39–16.43.

**Q.** And the Dead cells (HBL-100 cells [3]; dose 2xIC50)?
**A.** Its Dead cells is 5.59±0.46%.

**Q.** And the Late apoptotic cells (HBL-100 cells [3]; dose 2xIC50)?
**A.** The Late apoptotic cells was 10.37 ± 1.01%.

**Q.** And the Viable cells (HBL-100 cells [3]; dose 2xIC50)?
**A.** The Viable cells was 76.73 ± 1.18%.

**Q.** And the Early apoptotic cells (HBL-100 cells [3]; dose 2xIC50, listed as MK)?
**A.** The Early apoptotic cells was 7.29 ± 0.28% and 7.29±0.29%.

**Q.** What about the Dead cells (HBL-100 cells [3]; dose IC50) of the same compound?
**A.** Its Dead cells is 2.69±0.13%.

**Q.** What about the Late apoptotic cells (HBL-100 cells [3]; dose IC50) of the same compound?
**A.** The Late apoptotic cells was 3.59 ± 0.82%.

**Q.** And the Early apoptotic cells (HBL-100 cells [3]; dose IC50, listed as MK)?
**A.** Its Early apoptotic cells is 4.43±0.49%.

**Q.** And the Viable cells (HBL-100 cells [3]; dose IC50, listed as MK)?
**A.** The Viable cells was 89.57 ± 0.93% and 89.58±0.94%.
